Positions of bridges follow the written chain, without caps; N, C: chain ends. Non-standard residues stand in square brackets, D forms with d. Residues, ends and D or L forms follow the SMILES beside them.
Experiments:
[1] = test system: precontracted rabbit or rat aortic preparations; assay: Vasorelaxant potency on precontracted aortic rings; details: for IC50: thoracic aortic segments precontracted with histamine or norepinephrine, read-out: IC50 (concentration producing half-maximal relaxation of the precontracted tissue)
Experimental: Synthetic ANVP compounds were compared to partially purified (gel filtration step) and purified (HPLC) native ANVP compounds (See FIGS. 3A-D) for their ability to relax histamine-contracted aortic rings. Rings were suspended in 10 ml aerated Kreb's buffer under 1.5 gm passive tension. Rings were precontracted with 5 X 10^-6 M histamine, washed and allowed to return to baseline tension, as described ([…]., supra). Increasing amounts of purified or synthetic ANVP compounds were then added in cumulative fashion. […] The relaxation effects of various ANVP compounds on precontracted rabbit or rat aortic preparations are shown in Table III. | Thoracic aortic segments were precontracted with histamine or | norepinephrine as previously described. Various doses of ANVP compounds | were then added and relaxation of the precontracted state was monitored. | Data are expressed as the concentration of each peptide required to | produce a halfmaximal relaxation of the precontracted tissue (IC50).

[2] = test system: intact rats; assay: Natriuretic and diuretic effects in intact rats (bolus injection); type: in vivo, rat; details: dose 3670 pmol/kg
Experimental: Synthetic ANVP compounds […] hANVP(127-151) were also found to be natriuretic in the intact rat. These compounds were administered as a bolus injection to Inactin anesthetized rats (100 mg/kg, average weight 399 g) which were maintained on a constant infusion of normal saline at 2.2 ml/hr. […] Data are expressed as mean±SE.

SMILES | IC50 [1] [nM] | vasorelaxant potency in words ([1]; precontracted vascular preparations) | Peak Na+ Excr. [2] [µmol/min] | Peak Urine Vol. [2] [µL/min]
CC[C@H](C)[C@@H]1NC(=O)[C@H](CCCNC(=N)N)NC(=O)[C@H](CC(=O)O)NC(=O)[C@@H](C(C)C)NC(=O)[C@H](CCCNC(=N)N)NC(=O)CNC(=O)CNC(=O)[C@H](Cc2ccccc2)NC(=O)[C@@H](NC(=O)[C@H](CO)NC(=O)[C@H](CO)NC(=O)[C@@H](N)CCCNC(=N)N)CSSC[C@@H](C(=O)N[C@@H](CC(N)=O)C(=O)N[C@@H](CO)C(=O)N[C@@H](Cc2ccccc2)C(=O)N[C@@H](CCCNC(=N)N)C(=O)N[C@@H](Cc2ccc(O)cc2)C(=O)O)NC(=O)CNC(=O)[C@H](CC(C)C)NC(=O)CNC(=O)[C@H](CO)NC(=O)[C@H](CCC(N)=O)NC(=O)[C@H](C)NC(=O)CNC1=O [[D-Val^134]rANVP(126-150), H-Arg-Ser-Ser-Cys-Phe-Gly-Arg-[D-Val]-Asp-Arg-Ile-Gly-Ala-Gln-Ser-Gly-Leu-Gly-Cys-Asn-Ser-Phe-Arg-Tyr-OH] | 13 |  |  | 
CC[C@H](C)[C@@H]1NC(=O)[C@H](CCCNC(=N)N)NC(=O)[C@H](CC(=O)O)NC(=O)[C@H]([C@@H](C)CC)NC(=O)[C@H](CCCNC(=N)N)NC(=O)CNC(=O)[C@@H](C)NC(=O)[C@H](Cc2ccccc2)NC(=O)[C@@H](NC(=O)[C@H](CO)NC(=O)[C@H](CO)NC(=O)[C@@H](N)CCCNC(=N)N)CSSC[C@@H](C(=O)N[C@@H](CC(N)=O)C(=O)N[C@@H](CO)C(=O)N[C@@H](Cc2ccccc2)C(=O)N[C@@H](CCCNC(=N)N)C(=O)N[C@@H](Cc2ccc(O)cc2)C(=O)O)NC(=O)CNC(=O)[C@H](CC(C)C)NC(=O)CNC(=O)[C@H](CO)NC(=O)[C@H](CCC(N)=O)NC(=O)[C@H](C)NC(=O)CNC1=O [[D-Ala^131]rANVP(126-150), H-Arg-Ser-Ser-Cys-Phe-[D-Ala]-Gly-Arg-Ile-Asp-Arg-Ile-Gly-Ala-Gln-Ser-Gly-Leu-Gly-Cys-Asn-Ser-Phe-Arg-Tyr-OH] | 0.9 | most potent |  | 
CC[C@H](C)[C@@H]1NC(=O)[C@H](CCCNC(=N)N)NC(=O)[C@H](CC(=O)O)NC(=O)[C@H]([C@@H](C)CC)NC(=O)[C@H](CCCNC(=N)N)NC(=O)CNC(=O)[C@@H](C)NC(=O)[C@H](Cc2ccccc2)NC(=O)[C@@H](NC(=O)[C@H](CO)NC(=O)[C@H](CO)NC(=O)[C@@H](N)CCCNC(=N)N)CSSC[C@@H](C(=O)N[C@@H](CC(N)=O)C(=O)N[C@@H](CO)C(=O)N[C@@H](Cc2ccccc2)C(=O)N[C@@H](CCCNC(=N)N)C(=O)N[C@@H](Cc2ccc(O)cc2)C(=O)O)NC(=O)CNC(=O)[C@H](CC(C)C)NC(=O)[C@@H](C)NC(=O)[C@H](CO)NC(=O)[C@H](CCC(N)=O)NC(=O)[C@H](C)NC(=O)CNC1=O [[D-Ala^131][D-Ala^142]rANVP(126-150), H-Arg-Ser-Ser-Cys-Phe-[D-Ala]Gly-Arg-Ile-Asp-Arg-Ile-Gly-Ala-Gln-Ser-[D-Ala]-Leu-Gly-Cys-Asn-Ser-Phe-Arg-Tyr-OH] (H-RSSCF[dA]GRIDRIGAQS[dA]LGCNSFRY-OH; disulfide 4-20) |  |  | 140 ± 8 | 30 ± 7
CC[C@H](C)[C@@H]1NC(=O)[C@H](CCCNC(=N)N)NC(=O)[C@H](CC(=O)O)NC(=O)[C@H]([C@@H](C)CC)NC(=O)[C@H](CCCNC(=N)N)NC(=O)[C@@H](C)NC(=O)CNC(=O)[C@H](Cc2ccccc2)NC(=O)[C@@H](NC(=O)[C@H](CO)NC(=O)[C@H](CO)NC(=O)[C@@H](N)CCCNC(=N)N)CSSC[C@@H](C(=O)N[C@@H](CC(N)=O)C(=O)N[C@@H](CO)C(=O)N[C@@H](Cc2ccccc2)C(=O)N[C@@H](CCCNC(=N)N)C(=O)N[C@@H](Cc2ccc(O)cc2)C(=O)O)NC(=O)CNC(=O)[C@H](CC(C)C)NC(=O)CNC(=O)[C@H](CO)NC(=O)[C@H](CCC(N)=O)NC(=O)[C@H](C)NC(=O)CNC1=O [[D-Ala^132]rANVP(126-150), H-Arg-Ser-Ser-Cys-Phe-Gly-[D-Ala]-Arg-Ile-Asp-Arg-Ile-Gly-Ala-Gln-Ser-Gly-Leu-Gly-Cys-Asn-Ser-Phe-Arg-Tyr-OH] |  |  | 20 ± 5 | 89

From patent US5212286A, “Atrial Natriuretic/vasodilator peptide compounds” (Scios Nova Inc., priority 1986, dated 1993)
